Results: US20130133245A1, “OXYGENATE ADDITIVE FOR INTERNAL COMBUSTION ENGINE FUEL, FUEL COMPOSITION COMPRISING THE SAME AND IMPROVED PROCESS FOR PRODUCING HIGHLY METHYLATED GLYCEROL ETHERS” (priority 2011, published 2013)
One block for each molecule: values may come before it.

Assays:
[1] = Density of oxygenate additive (main properties comparison)
[2] = Solubility in gasoline or aviation turbine fuel; format: physicochemical
[3] = Solubility / miscibility in diesel fuel; format: physicochemical

Lower heating value (Lower heating value): 24.5 kJ/g | Flash point (Flash point): 70 °C | Heat of combustion (Heat of combustion): -2.52e+07 J/kg | Density [1]: 937 kg/m^3 | Lower flammability limit (Lower flammability limit): 1.2 % vol
Molecule: COCCOCCOC [DGM, diethylene glycol dimethyl ether]

dissolution in gasoline or aviation turbine fuel [2]: completely dissolved | solubility in diesel fuel ([3]; diesel fuel): ~100%
Molecule: COCC(COC)OC [GTME, glycerol trimethyl ether]

miscibility with diesel fuel ([3]; too much amount mixed with diesel fuel): phase separation
Molecule: glycerol dimethyl ethers [GDMEs]
